According to paper PMC10721633 (Nature Communications, 2023):

B1: DnaA^104–446 (Bacillus subtilis DnaA lacking domains I-II; domains III-IV) (domain or fragment, UniProt P05648 104-446, looked up)
chain: SDFPQNMLNPKYTFDTFVIGSGNRFAHAASLAVAEAPAKAYNPLFIYGGVGLGKTHLMHAIGHYVIDHNPSAKVVYLSSEKFTNEFINSIRDNKAVDFRNRYRNVDVLLIDDIQFLAGKEQTQEEFFHTFNTLHEESKQIVISSDRPPKEIPTLEDRLRSRFEWGLITDITPPDLETRIAILRKKAKAEGLDIPNEVMLYIANQIDSNIRELEGALIRVVAYSSLINKDINADLAAEALKDIIPSSKPKVITIKEIQRVVGQQFNIKLEDFKAKKRTKSVAFPRQIAMYLSREMTDSSLPKIGEEFGGRDHTTVIHAHEKISKLLADDEQLQQHVKEIKEQLK
notes: also called DnaA1-7 (the seven protomers in the BUS complex); DnaA^ATP; source: E. coli BL21(DE3)-pLysS, purified (HisTrap, HiTrap Heparin, SUMO protease digestion, second HisTrap flow-through); not shown: His14, N-terminal, cleaved; SUMO, N-terminal, cleaved

How the values were obtained:
DnaA = biological target: T1, DnaA (Bacillus subtilis, UniProt P05648); assay: single-molecule TIRF DNA strand separation; assay type: biochemical; conditions: BUS DNA scaffold, 50 nM DnaA, 10 mM magnesium acetate, 100 mM potassium glutamate, pH 7.6
T1 construct: full length; His14-SUMO tag cleaved; E. coli BL21(DE3)-pLysS
T1 sequence (P05648 whole entry): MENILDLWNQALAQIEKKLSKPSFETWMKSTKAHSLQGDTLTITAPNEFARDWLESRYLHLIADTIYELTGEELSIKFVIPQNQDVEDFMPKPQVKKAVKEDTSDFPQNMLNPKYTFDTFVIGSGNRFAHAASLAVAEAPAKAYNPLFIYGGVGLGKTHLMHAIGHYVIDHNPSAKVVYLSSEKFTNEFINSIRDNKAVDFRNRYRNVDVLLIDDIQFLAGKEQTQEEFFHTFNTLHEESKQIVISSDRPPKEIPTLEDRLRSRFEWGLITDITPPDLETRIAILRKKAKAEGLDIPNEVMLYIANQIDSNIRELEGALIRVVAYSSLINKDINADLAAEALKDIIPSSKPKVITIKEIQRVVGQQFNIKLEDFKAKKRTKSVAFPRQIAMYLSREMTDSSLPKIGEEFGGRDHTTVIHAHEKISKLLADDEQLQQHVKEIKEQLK

DnaA^104-446 = biological target: T2, DnaA^104-446 (Bacillus subtilis, UniProt P05648); assay: cryo-EM structure; assay type: binding; conditions: BUS DNA scaffold, 2 uM ATP, 1 mM magnesium acetate, pH 7.5, 37 °C, glutaraldehyde crosslinked
T2 construct: domains III-IV, residues 104-446; His14-SUMO tag cleaved; E. coli BL21(DE3)-pLysS; heptamer on tailed BUS DNA, glutaraldehyde crosslinked

[1] = biological target: the molecule itself; assay: cryo-EM structure; 4 µM partially ssDNA scaffold with 40 µM DnaA^104–446 monomer, 10 mM HEPES pH 7.5, 100 mM potassium glutamate, 1 mM magnesium acetate, 2 µM ATP, 37 °C 10 min; cross-linked with 0.1% glutaraldehyde, multimeric complex isolated by SEC (Superdex 200); oligomer assembled on DNA

Molecule	single-molecule TIRF DNA strand separation (DnaA)	cryo-EM structure (DnaA^104-446)	stoichiometry N [1]
Nc1ncnc2c1ncn2[C@@H]1O[C@H](COP(=O)(O)OP(=O)(O)OP(=O)(O)O)[C@@H](O)[C@H]1O [ATP]	The addition of DnaA^ATP to the immobilized DNA scaffolds stimulated a reduction in the number	The cryo-EM model reveals seven DnaA^ATP protomers (termed DnaA1-7) engaging the DNA scaffold	–
B1	–	–	7
